Test results reported in PMC5080841 (Journal of medicinal chemistry, 2016).

What was measured:
[1] = molecular target: T1, P. aeruginosa HemO (Pseudomonas aeruginosa, UniProt O69002); conditions: read-out: binding affinity for HemO; previous work; cited from earlier work
T1 sequence (O69002 1-198): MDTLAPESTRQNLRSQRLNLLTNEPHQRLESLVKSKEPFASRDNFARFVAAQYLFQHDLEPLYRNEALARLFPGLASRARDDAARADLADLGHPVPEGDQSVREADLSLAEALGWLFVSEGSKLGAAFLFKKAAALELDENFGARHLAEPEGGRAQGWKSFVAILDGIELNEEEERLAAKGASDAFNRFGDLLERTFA

[2] = system: Caenorhabditis elegans infection model; conditions: previous work; cited from earlier work
[3] = system: P. aeruginosa; conditions: previous work; cited from earlier work
[4] = molecular target: HemO (Pseudomonas aeruginosa, UniProt O69002); assay: STD NMR binding epitope; conditions: relative to the strongest interacting proton

## CN(C)c1ccc(/C=N/NC(=N)N)cc1.Cl [Compound 1, (E)-2-(4-(Dimethylamino)benzylidene)hydrazine-carboximidamide Hydrochloride]
[1]
  Kd: 31.2 µM
[2]
  curing activity in Caenorhabditis elegans infection model: exhibited curing activity
[3]
  MIC50 against P. aeruginosa: 250 µg/mL

## Cl.NC(N)=N/N=C/c1cccc(OCc2ccccc2)c1 [Compound 24, (E)-2-(3-(Benzyloxy)benzylidene)hydrazinecarboximidamide Hydrochloride]
[4]
  relative STD interaction of the benzylimine proton: 100%
  relative STD interaction of the para-position proton: 82%
